Inconclusive results are not listed. Active and inactive are the calls of the source.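 How the source made its calls: active means Compounds that reduce signal, with fitted half-maximal dose at or under twice the top valid tested dose; inconclusive means Poor fit, or flat curve losing 30 to 70% of signal; inactive means Potency past limit, flat within 30%, or opposite direction.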
Test: HEK293T cell cytotoxicity, dose response, cytotoxicity control, ATP luminescence, cherry-pick samples (AID 687005)
Conditions: HEK293T viability, ATP luminescence (CellTiter-Glo), 48 h; at 23.5 µM (top of the series)
In the case of `CN1c2ccc(-c3ccc(F)cc3)cc2[C@H]2[C@H](CCN2S(=O)(=O)c2cccc(F)c2)[C@H]1CO`, the activity change, negative = cytotoxicity is reported as -32.1% (inactive). With `C[C@@H]1CN([C@@H](C)CO)C(=O)c2cc(NC(=O)Nc3ccc(F)cc3)ccc2O[C@@H](C)CCCCO[C@H]1CN(C)S(=O)(=O)c1ccccc1` the activity change, negative = cytotoxicity was 3.48% (inactive). For `COC(=O)C1=C(C)N(Cc2ccccc2)C(=S)N[C@H]1c1ccc(Br)cc1`, the activity change, negative = cytotoxicity was 13.4% (inactive). In the case of `CCC(=O)N1[C@H](CO)[C@@H](c2ccc(-c3cccnc3)cc2)[C@@H]1CN(C)C(C)=O`, the activity change, negative = cytotoxicity is reported as 3.73% (inactive). In the case of `CO[C@@H]1CN(C)C(=O)c2ccc(NC(C)=O)cc2OC[C@@H](C)N(C(=O)Cc2cccnc2)C[C@H]1C`, the activity change, negative = cytotoxicity is reported as -26.2% (inactive). For `CO[C@H]1CN(C)C(=O)c2cc(NC(C)=O)ccc2OC[C@H](C)N(Cc2cccc(F)c2)C[C@@H]1C`, the activity change, negative = cytotoxicity was -25.3% (inactive). With `C[C@H](CO)N1C[C@H](C)[C@H](CN(C)C(=O)Nc2ccc3c(c2)OCO3)Oc2ncc(C#CC(C)(C)O)cc2C1=O` the activity change, negative = cytotoxicity was -10.7% (inactive). For `CCCNC(=O)C[C@@H]1CC[C@@H]2[C@@H](COc3ccc(NC(=O)CCC)cc3C(=O)N2C)O1`, the activity change, negative = cytotoxicity was 9.04% (inactive). With `COCCNC(=O)C[C@@H]1C[C@H]2c3cc(NC(=O)C4CCOCC4)ccc3O[C@H]2[C@H](CO)O1` the activity change, negative = cytotoxicity was 25.9% (inactive). With `C[C@@H]1CN([C@@H](C)CO)C(=O)CCCn2nncc2CO[C@H]1CN(C)C(=O)Oc1cccc2ccccc12` the activity change, negative = cytotoxicity was 17.9% (inactive).

Same assay, conditions: HEK293T viability, ATP luminescence (CellTiter-Glo), 48 h; at 26 µM (top of the series)
In the case of `Cc1noc(C)c1NC(=O)Nc1ccc2c(c1)C(=O)N([C@@H](C)CO)C[C@H](C)[C@H](CN(C)CC1CCCCC1)O2`, the activity change, negative = cytotoxicity is reported as -11.6% (inactive). With `O=C(C[C@@H]1CC[C@@H](NC(=O)c2cccnc2)[C@@H](CO)O1)NCCN1CCCCC1` the activity change, negative = cytotoxicity was -2.13% (inactive). In the case of `Cc1cc(C)c2nc(N3CCN(C(=O)c4cccs4)CC3)sc2c1`, the activity change, negative = cytotoxicity is reported as -19.8% (inactive). In the case of `COc1ccc(NC(=O)Nc2ccc3c(c2)C(=O)N([C@H](C)CO)C[C@@H](C)[C@@H](CN(C)C(=O)CCC(F)(F)F)OCCCC[C@H](C)O3)cc1`, the activity change, negative = cytotoxicity is reported as -34.4% (inactive). With `C[C@@H]1CN([C@H](C)CO)C(=O)c2cc(C3=CCCCC3)cnc2O[C@H]1CN(C)C(=O)Cc1cccnc1` the activity change, negative = cytotoxicity was -11.9% (inactive). With `CCCC(=O)Nc1ccc2c(c1)OC[C@H](C)N(Cc1ccccn1)C[C@H](C)[C@H](OC)CN(C)C2=O` the activity change, negative = cytotoxicity was 16.2% (inactive). With `Cc1cc(C)c(NC(=O)C2CCC(=O)N2)c(C)c1` (stereo not given) the activity change, negative = cytotoxicity was 12.8% (inactive). For `CCCC(=O)Nc1ccc2c(c1)OC[C@@H](C)N(Cc1cncnc1)C[C@@H](C)[C@@H](OC)CN(C)C2=O`, the activity change, negative = cytotoxicity was 49.4% (inactive). In the case of `O=C(COc1ccc2c(c1)CCC2)NCc1ccc(Cl)cc1`, the activity change, negative = cytotoxicity is reported as 18.5% (inactive). For `Cc1c(C(=O)NC(=S)Nc2ccccc2N2CCCC2)cccc1[N+](=O)[O-]`, the activity change, negative = cytotoxicity was -4.96% (inactive). With `CCOC(=O)CSc1ncnc2c1cnn2-c1ccc(Cl)cc1` the activity change, negative = cytotoxicity was 0.015% (inactive). For `Cc1ccc(S(=O)(=O)N(CC(=O)NCCSC2CCCCC2)c2ccccc2F)cc1`, the activity change, negative = cytotoxicity was 5.79% (inactive). With `C=CCNC(=O)CN(c1ccc(F)cc1)S(=O)(=O)c1ccc(OC)cc1` the activity change, negative = cytotoxicity was -6.42% (inactive). With `COc1ccc(CN(C)C[C@@H]2Oc3ccc(NC(=O)Nc4ccc(F)cc4)cc3CC(=O)N([C@H](C)CO)C[C@H]2C)cc1` the activity change, negative = cytotoxicity was -7.45% (inactive). In the case of `CC=Cc1ccc2n(c1=O)C[C@H]1[C@H](CO)[C@@H](C(=O)N3CCc4ccccc4C3)N(C(=O)C3CC3)[C@@H]21` (mixture of isomers), the activity change, negative = cytotoxicity is reported as -9.72% (inactive). With `O=C(NC[C@H]1[C@@H](c2ccccc2)[C@@H](CO)N1C(=O)C1CCC1)NC1CCCC1` the activity change, negative = cytotoxicity was -38.9% (inactive). In the case of `COc1ccc(N(CC(=O)NCCSCc2ccc(C)cc2)S(=O)(=O)c2ccccc2)cc1`, the activity change, negative = cytotoxicity is reported as -65.3% (inactive). In the case of `C[C@@H]1CN([C@H](C)CO)C(=O)CCCn2cc(nn2)CO[C@@H]1CN(C)C(=O)CCCN(C)C`, the activity change, negative = cytotoxicity is reported as -5.89% (inactive). With `C[C@@H]1CN([C@@H](C)CO)C(=O)c2cc(-c3cncnc3)cnc2O[C@H]1CN(C)C(=O)CN1CCOCC1` the activity change, negative = cytotoxicity was -25.3% (inactive). For `COCC(=O)Nc1ccc2c(c1)OC[C@@H](C)N(C(=O)Cc1cccnc1)C[C@H](C)[C@@H](OC)CN(C)C2=O`, the activity change, negative = cytotoxicity was -14.6% (inactive). With `COc1ccccc1CNC(=O)COc1ccc2c(c1)CCC2` the activity change, negative = cytotoxicity was 28.6% (inactive). In the case of `CC(C)NC(=O)Nc1ccc2c(c1)C(=O)N([C@H](C)CO)C[C@H](C)[C@H](CN(C)Cc1ccncc1)OCCCC[C@H](C)O2`, the activity change, negative = cytotoxicity is reported as -57.3% (inactive). For `COCC#Cc1cnc2c(c1)C(=O)N([C@@H](C)CO)C[C@H](C)[C@H](CN(C)C(=O)Nc1ccc(OC)cc1)O2`, the activity change, negative = cytotoxicity was 21.8% (inactive). In the case of `CC(=O)NNC(=O)CSc1nnc(-c2ccccc2)c(-c2ccccc2)n1`, the activity change, negative = cytotoxicity is reported as -4.35% (inactive). In the case of `C[C@H](O)C#Cc1ccc2c(c1)O[C@H](CN(C)C(=O)C1CCCCC1)[C@H](C)CN([C@@H](C)CO)S2(=O)=O`, the activity change, negative = cytotoxicity is reported as 34.3% (inactive). With `CCNC(=O)Nc1ccc2c(c1)C(=O)N(C)[C@@H]1CC[C@H](CC(=O)N[C@@H](C)c3ccccc3)O[C@@H]1CO2` the activity change, negative = cytotoxicity was 66.2% (inactive). For `Cc1noc(C)c1NC(=O)Nc1ccc2c(c1)C(=O)N([C@@H](C)CO)C[C@H](C)[C@H](CN(C)S(=O)(=O)c1ccc(Cl)cc1)O2`, the activity change, negative = cytotoxicity was 8.28% (inactive). For `C[C@H](CO)N1C[C@H](C)[C@H](CN(C)C(=O)Nc2cccc(F)c2)Oc2ncc(C#CCN(C)C)cc2C1=O`, the activity change, negative = cytotoxicity was -20.2% (inactive). For `Cc1ccc(NC(=O)C2CCC(=O)N2)cc1C` (stereo not given), the activity change, negative = cytotoxicity was -5.26% (inactive). In the case of `COc1ccc(NC(=O)N(C)C[C@H]2OCCCC[C@@H](C)Oc3ccc(NC(=O)c4ccccc4)cc3C(=O)N([C@H](C)CO)C[C@H]2C)cc1`, the activity change, negative = cytotoxicity is reported as -27.5% (inactive). In the case of `Cc1cc(C)cc(OCC(=O)NC(C)c2ccccc2)c1` (stereo not given), the activity change, negative = cytotoxicity is reported as 14.9% (inactive). With `C[C@@H]1CCCCO[C@H](CN(C)C(=O)CCCN(C)C)[C@@H](C)CN([C@H](C)CO)C(=O)c2cc(NC(=O)Cc3ccccc3)ccc2O1` the activity change, negative = cytotoxicity was 5.89% (inactive). For `CC(C)NC(=O)Nc1ccc2c(c1)C(=O)N([C@@H](C)CO)C[C@@H](C)[C@@H](CN(C)C(=O)NC(C)C)OCCCC[C@@H](C)O2`, the activity change, negative = cytotoxicity was 20.5% (inactive). In the case of `CN1C(=O)c2cc(NC(=O)Nc3ccc(Cl)cc3)ccc2OC[C@H]2O[C@@H](CC(=O)NCCN3CCCCC3)CC[C@@H]21`, the activity change, negative = cytotoxicity is reported as 36.5% (inactive). With `CC(C)(C)SCCNC(=O)CN(c1ccccc1)S(=O)(=O)c1ccc(F)cc1` the activity change, negative = cytotoxicity was -6.34% (inactive). In the case of `Cc1noc(C)c1S(=O)(=O)Nc1ccc2c(c1)C(=O)N([C@@H](C)CO)C[C@@H](C)[C@@H](CN(C)Cc1ccccc1)OCCCC[C@H](C)O2`, the activity change, negative = cytotoxicity is reported as -12.2% (inactive). For `C[C@H](CO)N1C[C@H](C)[C@@H](CN(C)C(=O)c2cccc(F)c2)Oc2cc(-c3cncnc3)ccc2S1(=O)=O`, the activity change, negative = cytotoxicity was -22.6% (inactive). With `CN1[C@H](C(=O)N2CCc3ccccc3C2)[C@@H](CO)[C@@H]2Cn3c(ccc(-c4cccnc4)c3=O)[C@@H]21` the activity change, negative = cytotoxicity was 7.82% (inactive). For `CCC(=O)N1[C@H](C(=O)Nc2ccccc2)[C@@H](CO)[C@@H]2Cn3c(ccc(-c4ccncc4)c3=O)[C@@H]21`, the activity change, negative = cytotoxicity was 24.7% (inactive). In the case of `O=C(NC1CCCCC1)N[C@@H]1CC[C@@H](CCNS(=O)(=O)c2ccc(Cl)cc2)O[C@H]1CO`, the activity change, negative = cytotoxicity is reported as 45.5% (inactive). With `C[C@H](CO)N1C[C@H](C)[C@H](CN(C)Cc2ccccc2)OCCCC[C@H](C)Oc2ccc(NS(=O)(=O)c3cccs3)cc2C1=O` the activity change, negative = cytotoxicity was -20.5% (inactive). For `S=C(Nc1ccccc1)Nc1cc(Cl)ccc1Oc1ccccc1`, the activity change, negative = cytotoxicity was -0.976% (inactive). With `CO[C@H]1CN(C)C(=O)c2ccc(NC(=O)NC(C)C)cc2OC[C@@H](C)NC[C@H]1C` the activity change, negative = cytotoxicity was -16.2% (inactive). With `C[C@H]1CN([C@@H](C)CO)C(=O)Cc2cc(NC(=O)CCCCCC(=O)Nc3ccccc3N)ccc2O[C@H]1CN(C)C(=O)Nc1ccccc1` the activity change, negative = cytotoxicity was -5.33% (inactive). For `C[C@H]1CN([C@@H](C)CO)C(=O)Cc2cc(N(C)C)ccc2O[C@@H]1CN(C)C(=O)Nc1ccc(C(F)(F)F)cc1`, the activity change, negative = cytotoxicity was -28.9% (inactive). For `CC(=O)N1[C@@H]2c3ccc(-c4ccccc4)c(=O)n3C[C@H]1[C@H](CO)[C@H]2C(=O)Nc1ccccc1`, the activity change, negative = cytotoxicity was 17.2% (inactive). In the case of `C[C@H](NC(=O)C[C@@H]1C=C[C@H](NC(=O)CN2CCOCC2)[C@H](CO)O1)c1ccccc1`, the activity change, negative = cytotoxicity is reported as -20.9% (inactive). For `O=C(NCCN1CCCCC1)[C@@H]1N[C@@H]2c3ccc(-c4ccncc4)c(=O)n3C[C@@H]2[C@H]1CO`, the activity change, negative = cytotoxicity was -26.2% (inactive). With `C[C@H]1CN([C@@H](C)CO)C(=O)c2cccc(NS(C)(=O)=O)c2O[C@@H]1CN(C)Cc1ccc(-c2ccccc2)cc1` the activity change, negative = cytotoxicity was -8.66% (inactive). For `CC(C)NC(=O)Nc1cccc2c1O[C@H](CN(C)C)[C@H](C)CN([C@@H](C)CO)C2=O`, the activity change, negative = cytotoxicity was 22% (inactive). In the case of `COc1cccc(S(=O)(=O)Nc2ccc3c(c2)[C@H]2C[C@H](CC(=O)N(C)C)O[C@@H](CO)[C@H]2O3)c1`, the activity change, negative = cytotoxicity is reported as -5.49% (inactive). For `Cc1c(C(=O)NC(=S)Nc2ccc(N3CCOCC3)cc2)cccc1[N+](=O)[O-]`, the activity change, negative = cytotoxicity was -33.3% (inactive). In the case of `Cc1cccc(NC(=O)C2NC(=O)CC2c2ccccc2)c1C` (stereo not given), the activity change, negative = cytotoxicity is reported as 8.03% (inactive).

Same assay, conditions: HEK293T viability, ATP luminescence (CellTiter-Glo), 48 h; at 42 µM (top of the series)
For `Cc1ccc(NC(=O)C2(C)CCCN2CC(C)C)cc1C` (stereo not given), the activity change, negative = cytotoxicity was -2.43% (inactive). For `CCc1ccc(NC(=O)C2NC(=O)CC2c2ccccc2)cc1` (stereo not given), the activity change, negative = cytotoxicity was -46.7% (inactive).

Source: PubChem BioAssay AID687005 (Broad Institute, 2013)
